Results as given in publication PMC4506051, “Pharmacokinetic Profiles of Active Ingredients and Its Metabolites Derived from Rikkunshito, a Ghrelin Enhancer, in Healthy Japanese Volunteers: A Cross-Over, Randomized Study” (PLoS ONE, 2015).

Experiments:
5-HT2BR = system: 5-HT2BR; parameters: method as in PMID 18439428; details: cited from earlier work
ghrelin secretion = details: cited from earlier work
[1] = Exploratory trial: plasma concentration of rikkunshito ingredients after single oral rikkunshito 7.5 g; format: in vivo
Summary of the method: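 Plasma and urine levels were measured by LC–MS/MS after one 7.5 g oral dose of rikkunshito. Samples were collected before dosing and at 0.5–8 h for blood, or in 0–4 h and 4–8 h fractions for urine. Synephrine was determined after protein-removal plate cleanup; the other ingredients after β-glucuronidase deconjugation (2 h, 37°C) and SPE.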

[2] = Stability of ingredients in gastric pH solution (pH 1.2, 37°C); format: physicochemical
Description: Rikkunshito gradually dissolved in acidic solution (pH 1.2) at 37°C, and the concentration of atractylodin after adding 0.25, 0.5, 1, and 2 h was measured by gas chromatography–mass spectrometry.

[3] = Exploratory trial: amount of rikkunshito ingredients in urine; format: in vivo, human
Summary of the method: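 LC–MS/MS measurement of rikkunshito constituents in urine fractions (pre-dose, 0–4 h, 4–8 h) following one 7.5 g oral dose. Other constituents: enzymatic deglucuronidation at 37 °C for 2 h, then SPE cleanup with atractylenolide III or digoxin as IS; synephrine: erythromycin IS, Ostro plate.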

5-HT2CR = system: 5-HT2CR; parameters: method as in PMID 18439428; details: cited from earlier work
[4] = Exploratory trial: ingredients in β-glucuronidase (enzyme)-treated urine; format: in vivo, human; details: human, in vivo
Description: (§1) In the first exploratory trial, 20-mL blood samples were collected from the cutaneous vein in the subjects’ forearm via a blood sampling tube that contained heparin at 0 (preadministration), 0.5, 1, 2, 4, and 8 h after a single oral administration of rikkunshito (Lot E24652). The dose of rikkunshito used in this trial was 7.5 g/day, which is the clinical daily dose, to widely explore rikkunshito-derived ingredients that enter the blood. Along with plasma, urine samples were collected at three points: between dinner and bedtime (preadministration), between 0 and 4 h after administration, and between 4 and 8 h after administration. The blood was immediately centrifuged at 1700 ×g for 10 min to obtain plasma. Plasma and urine fractions were stored at −80°C or lower until analysis.
(§2) For quantification of 30 ingredients other than atractylodin and synephrine, 25 µL of standard solution or methanol was added to 500 µL plasma or urine samples followed by mixing. Atractylenolide III or digoxin (IS) solution (50 μL) was added to the solutions followed by mixing. For urine, 400 µL of blank plasma was added to the solutions. Ammonium acetate solution (100 mM, 100 or 400 µL) was added to the solutions followed by mixing. For enzymatic treatment, plasma and urine samples were incubated with β-glucuronidase (100 units in 100 mM ammonium acetate) for 2 h at 37°C. A solid-phase cartridge (OASIS HLB, 30 mg/1cc, Waters) was conditioned with methanol and 10 mM ammonium acetate solution, and the samples were loaded onto the cartridge. The cartridge was washed water : methanol (9:1, v/v), and 1.5 mL of methanol and 30 µL of propylene glycol were added to the cartridge to elute the analytes. The mixtures were dried at 25°C under a stream of nitrogen gas. Furthermore, 100 μL of 10 mM ammonium acetate : methanol (8:2, v/v) was added to the dried samples followed by mixing and sonication. The solutions were filtered (0.22 µm) and followed by injection into the LC–MS/MS system. […] Those analytical conditions are summarized in S2 Table and S3 Table.

[5] = Exploratory trial: ingredients in β-glucuronidase (enzyme)-treated plasma; format: in vivo, human; details: in vivo
Description: as §1, §2

[6] = system: cisplatin-induced anorexia model; details: cited from earlier work
[7] = of the ingredient in the formulation; summary table, reference not given; cited from earlier work
[8] = Formation of ingredients derived from rikkunshito in formulation, blood, and urine (S11 Table summary); details: after rikkunshito administration, per ingredient in the formulation; for Formation of ingredients: form found in Urine: BQL = below the quantification limit
[9] = oral administration at a dose of 4.0 mg/kg

In the case of `COc1ccc([C@@H]2CC(=O)c3c(O)cc(O)cc3O2)cc1O` [Hesperetin], the 5-HT2BR inhibitory/antagonistic activity (5-HT2BR) is listed as “inhibit”, the “Known pharmacology activities: ghrelin secretion” value (ghrelin secretion) is listed as “Ghrelin secretion promoting activity [14, 15]” and the “Plasma concentration at all time points” value ([1]; 0–8 h, rikkunshito 7.5 g, untreated plasma, BQL = below the quantification limit) is listed as “BQL”. For the same compound, the “Stability in gastric pH solution, Quantitative value” (“Stability in gastric pH solution” for short) ([2]; 0.5 h, pH 1.2) was 4.38 ng/mL, the “Stability in gastric pH solution” value ([2]; 1 h, pH 1.2) was 4.36 ng/mL and the “Stability in gastric pH solution” value ([2]; 2 h, pH 1.2) was 3.90 ng/mL. For the same compound, the “Amount in urine, Pre” value ([3]; human, in vivo) was 213 ± 390 ng, the “Amount in urine, 0–4 h” value ([3]; human, in vivo, po) was 462 ± 418 ng and the 5-HT2CR inhibitory activity (5-HT2CR) was “inhibit”. For the same compound, the “Amount in enzyme-treated urine, 0–4 h” value [4] was 7130 ± 9290 ng, the “Amount in enzyme-treated urine, 4–8 h” value [4] was 56750 ± 37530 ng and the “Amount in enzyme-treated urine, Pre” value [4] was 4290 ± 7690 ng. The “Increase of urine concentration after β-glucuronidase treatment compared with before treatment” value [4] was “more than 10 fold”, the Cmax ([5]; human) was 0.799 ng/mL and the concentration at 2 h ([5]; human) was 0.227 ± 0.264 ng/mL. For the same compound, the concentration at 4 h ([5]; human) was 0.799 ± 0.408 ng/mL, the concentration at 8 h ([5]; human) was 0.307 ± 0.289 ng/mL and the “Plasma concentration in enzyme-treated plasma, 0 h” value [5] was “BQL”. The “Plasma concentration in enzyme-treated plasma, 0.5 h” value [5] was “BQL” and the “Plasma concentration in enzyme-treated plasma, 1 h” value [5] was “BQL”.

For `COc1ccc([C@@H]2CC(=O)c3c(O)cc(O[C@@H]4O[C@H](CO[C@@H]5O[C@@H](C)[C@H](O)[C@@H](O)[C@H]5O)[C@@H](O)[C@H](O)[C@H]4O)cc3O2)cc1O` [Hesperidin], the “Appetite following cisplatin administration” value [6, 9] is listed as “improves decreased appetite”, the “Plasma ghrelin concentration following cisplatin administration” value [6, 9] is listed as “inhibits a decrease in plasma ghrelin concentration” and the “Acylated ghrelin level in blood” value ([6]; oral administration, cisplatin-induced anorexia model) is listed as “suppressed the decrease of the acylated ghrelin level in blood in a concentration-dependent manner”. For the same compound, the “Stability in gastric pH solution” value ([2]; rikkunshito in acidic solution (pH 1.2) at 37°C, 0.5 h) was 2860 ng/mL, the “Stability in gastric pH solution” value ([2]; rikkunshito in acidic solution (pH 1.2) at 37°C, 1 h) was 3130 ng/mL and the “Stability in gastric pH solution” value ([2]; rikkunshito in acidic solution (pH 1.2) at 37°C, 2 h) was 2570 ng/mL. The Metabolite by enterobacterium [7] was “Hesperetin”, the “Amount in urine, 0–4 h” value ([3]; 0–4 h after single oral rikkunshito 7.5 g, mean ± S.D., n = 4) was 184 ± 60.5 ng and the “Amount in urine, 4–8 h” value ([3]; 4–8 h after single oral rikkunshito 7.5 g, mean ± S.D., n = 4) was 68.6 ± 47.9 ng. For the same compound, the “Amount in urine, Pre” value ([3]; preadministration (between dinner and bedtime), mean ± S.D., n = 4) was 28.9 ± 57.8 ng, the “Formation of ingredients: form found in Blood” value [8] was “Conjugate metabolites of hesperetin” and the “Formation of ingredients: form found in Urine” value [8] was “Hesperidin Hesperetin Conjugate metabolites of hesperetin”.

In the case of `C[C@@H]1O[C@@H](O[C@H]2[C@H](Oc3cc(O)c4c(c3)O[C@H](c3ccc(O)cc3)CC4=O)O[C@H](CO)[C@@H](O)[C@@H]2O)[C@H](O)[C@H](O)[C@H]1O` [Naringin], the “Plasma concentration, 0 h” value ([1]; 0 h (preadministration), single oral rikkunshito 7.5 g, mean ± S.D., n = 4) is reported as “BQL”, the “Plasma concentration, 0.5 h” value ([1]; 0.5 h after single oral rikkunshito 7.5 g, mean ± S.D., n = 4) is reported as “BQL” and the “Plasma concentration, 1 h” value ([1]; 1 h after single oral rikkunshito 7.5 g, mean ± S.D., n = 4) is reported as 59.0 ± 68.4 pg/mL. For the same compound, the “Plasma concentration, 2 h” value ([1]; 2 h after single oral rikkunshito 7.5 g, mean ± S.D., n = 4) was “BQL”, the “Plasma concentration, 4 h” value ([1]; 4 h after single oral rikkunshito 7.5 g, mean ± S.D., n = 4) was “BQL” and the “Plasma concentration, 8 h” value ([1]; 8 h after single oral rikkunshito 7.5 g, mean ± S.D., n = 4) was “BQL”. The “Stability in gastric pH solution” value ([2]; 0.5 h, pH 1.2) was 959 ng/mL, the “Stability in gastric pH solution” value ([2]; 1 h, pH 1.2) was 1060 ng/mL and the “Stability in gastric pH solution” value ([2]; 2 h, pH 1.2) was 986 ng/mL. For the same compound, the Metabolite by enterobacterium [7] was “Naringenin (portion)”, the “Amount in urine, Pre” value ([3]; human, in vivo) was 70.7 ± 69.2 ng and the “Amount in urine, 0–4 h” value ([3]; human, in vivo, po) was 1030 ± 313 ng. The “Amount in urine, 4–8 h” value ([3]; human, in vivo, po) was 598 ± 329 ng, the “Formation of ingredients: form found in Blood” value [8] was “Naringin Naringenin Conjugate metabolites of naringenin^a” and the “Formation of ingredients: form found in Urine” value [8] was “Naringin Naringenin”.
